From ChEMBL document CHEMBL4138191, “Organic arsenicals target thioredoxin reductase followed by oxidative stress and mitochondrial dysfunction resulting in apoptosis” (Eur J Med Chem, 2018)
Calls of active or inactive are those of the source. The rule behind the calls is not given here.

Tests used:
HL-60 [1] = assay: Induction of ROS generation in human HL60 cells at 1.5 uM after 24 hrs in presence of antioxidant lipoic acid by DCFH-DA staining-based flow cytometry; assay type: functional, cell-based
[2] = biological target: T1, Thioredoxin reductase 1, cytoplasmic (Homo sapiens) (UniProt Q16881); assay: Inhibition of TrxR in human HL60 cells assessed as residual activity at 1.5 using thioredoxin as substrate measured for 5 mins by UV-Vis spectrophotometric analysis; assay type: cell-based
T1 sequence (whole entry): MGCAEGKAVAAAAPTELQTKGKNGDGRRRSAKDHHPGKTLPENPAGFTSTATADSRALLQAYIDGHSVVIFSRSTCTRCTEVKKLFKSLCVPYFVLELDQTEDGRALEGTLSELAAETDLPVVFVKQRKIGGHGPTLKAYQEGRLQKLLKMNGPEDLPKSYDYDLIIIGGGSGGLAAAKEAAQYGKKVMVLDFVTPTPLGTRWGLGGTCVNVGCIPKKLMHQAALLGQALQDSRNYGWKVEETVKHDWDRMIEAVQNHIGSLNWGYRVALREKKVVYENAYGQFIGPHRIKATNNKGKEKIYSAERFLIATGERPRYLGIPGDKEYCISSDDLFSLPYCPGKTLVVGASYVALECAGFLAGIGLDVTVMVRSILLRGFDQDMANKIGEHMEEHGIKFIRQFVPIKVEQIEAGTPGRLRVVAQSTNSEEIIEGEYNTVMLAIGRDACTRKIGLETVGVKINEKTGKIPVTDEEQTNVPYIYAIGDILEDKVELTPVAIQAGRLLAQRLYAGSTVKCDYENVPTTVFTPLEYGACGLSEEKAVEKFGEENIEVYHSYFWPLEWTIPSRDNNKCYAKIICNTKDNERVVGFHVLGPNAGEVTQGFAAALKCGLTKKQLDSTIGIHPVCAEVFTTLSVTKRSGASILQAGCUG

SGC-7901 [3] = assay: Cytotoxicity against human SGC7901 cells by MTT assay; assay type: functional, cell-based; details: TDE = time-dependent effect
HL-60 [4] = assay: Induction of cell death in human HL60 cells at 1 to 1.5 uM after 24 hrs in presence of antioxidant NAC by trypan blue assay; assay type: functional, cell-based
HL-60 [5] = assay: Induction of ROS generation in human HL60 cells assessed as reduction in intracellular thiols up to 2.5 uM incubated for 12 to 24 hrs by DTNB titration method; assay type: functional, cell-based
Liver [6] = assay: Induction of mitochondrial dysfunction in Wistar rat liver assessed as swelling at 20 uM in presence of calcium related inhibitor EGTA; assay type: functional; details: mitochondria
HL-60 [7] = assay: Induction of apoptosis in human HL60 cells assessed as incomplete cell membrane at 0.75 to 1.5 uM after 24 hrs by Hoechst 33342 staining-based laser scanning confocal microscopic analysis; assay type: functional
HL-60 [8] = assay: Cytotoxicity against human HL60 cells by MTT assay; assay type: functional, cell-based; details: TDE = time-dependent effect
HL-60 [9] = assay: Induction of apoptosis in human HL60 cells assessed as DNA incision in bulk of cells at 0.75 to 1.5 uM after 24 hrs by Hoechst 33342 staining-based laser scanning confocal microscopic analysis; assay type: functional, cell-based
HL-60 [10] = assay: Reduction of mitochondrial membrane potential in human HL60 cells assessed as decrease in ATP levels at 0.75 to 1.5 uM after 24 hrs; assay type: functional, cell-based
HL-60 [11] = assay: Induction of mitochondrial dysfunction in human HL60 cells assessed as increase in cytochome c levels in cytosol at 1.5 uM after 24 hrs by ELISA relative to control; assay type: functional
HL-60 [12] = assay: Cytotoxicity against human HL60 cells after 24 hrs by MTT assay; assay type: functional, cell-based; details: for IC50: HL-60, 24 h
HL-60 [13] = assay: Potentiation of H2O2-induced cytotoxicity in human HL60 cells assessed as induction of cell death at 1.5 to 2 uM preincubated for 6 hrs followed by compound washout and subsequent H2O2 addition measured after 18 hrs by MTT assay; assay type: functional, cell-based
SGC-7901 [14] = assay: Cytotoxicity against human SGC7901 cells after 48 hrs by MTT assay; assay type: functional, cell-based; details: for IC50: SGC-7901, 48 h
[15] = biological target: T1, Thioredoxin reductase 1, cytoplasmic (Homo sapiens); assay: Inhibition of TrxR in human HL60 cells assessed as residual activity at 2 times IC50 using thioredoxin as substrate up to 24 hrs measured for 5 mins by UV-Vis spectrophotometric analysis relative to control; assay type: cell-based
HL-60 [16] = assay: Induction of cell death in human HL60 cells at 1 to 1.5 uM after 24 hrs in presence of antioxidant resveratrol by trypan blue assay; assay type: functional, cell-based
HL-60 [17] = assay: Induction of apoptosis in human HL60 cells assessed as apoptotic body formation at 0.75 to 1.5 uM after 24 hrs by Hoechst 33342 staining-based laser scanning confocal microscopic analysis; assay type: functional, cell-based
HL-60 [18] = assay: Induction of ROS generation in human HL60 cells at 1.5 uM after 24 hrs in presence of ROS inhibitor NAC by DCFH-DA staining-based flow cytometry; assay type: functional, cell-based
HL-60 [19] = assay: Induction of cell death in human HL60 cells at 0.4 uM after 24 hrs in presence of […] BSO by MTT assay; assay type: functional, cell-based
Liver [20] = assay: Induction of mitochondrial dysfunction in Wistar rat liver assessed as swelling at 20 uM in presence of calcium related inhibitor cyclosporine A; assay type: functional; details: mitochondria
HL-60 [21] = assay: Induction of apoptosis in human HL60 cells assessed as abnormal cellular morphology at 0.75 to 1.5 uM after 24 hrs by Hoechst 33342 staining-based laser scanning confocal microscopic analysis; assay type: functional, cell-based
HL-60 [22] = assay: Induction of cell death in human HL60 cells assessed as decrease in total GSH levels after 24 hrs by MTT assay; assay type: functional, cell-based
HL-60 [23] = assay: Cytotoxicity against human HL60 cells after 48 hrs by MTT assay; assay type: functional, cell-based; details: for IC50: HL-60, 48 h
HL-60 [24] = assay: Induction of mitochondrial membrane potential loss in human HL60 cells at 1 uM after 24 hrs by JC-1 staining-based flow cytometry; assay type: functional, cell-based
Liver [25] = assay: Induction of mitochondrial dysfunction in Wistar rat liver assessed as swelling at 20 uM in presence of calcium related inhibitor ruthenium red; assay type: functional; details: mitochondria
GES1 = assay: Cytotoxicity against human GES-1 cells after 48 hrs by MTT assay; assay type: cell-based; details: for IC50: Homo sapiens, GES1, 48 h; for Activity: human, ges1, 48 h
HL-60 [26] = assay: Induction of cell death in human HL60 cells at 1 to 1.5 uM after 24 hrs in presence of […] BSO by MTT assay; assay type: functional, cell-based
MCF7 [27] = assay: Cytotoxicity against human MCF7 cells by MTT assay; assay type: functional, cell-based; details: TDE = time-dependent effect
Homo sapiens = species: Homo sapiens; assay: Effect on glutathione peroxidase catalytic activity in human HL60 cells; assay type: cell-based
MCF7 [28] = assay: Cytotoxicity against human MCF7 cells after 24 hrs by MTT assay; assay type: functional, cell-based; details: for IC50: MCF7, 24 h

Oc1ccccc1/C=N/c1ccc([As]2SCCCS2)cc1
Activity (HL-60 [1]): inactive | inhibition [2]: Dose-dependent effect | Activity (SGC-7901 [3]): Tde | Activity (HL-60 [4]): inactive | Activity (HL-60 [5]): Active | Activity (Liver [6]): inactive | Activity (HL-60 [7]): Active | Activity (HL-60 [8]): Tde | Activity (HL-60 [9]): Active | Activity (HL-60 [10]): Active | fold change (FC) (HL-60 [11]): 2 | Activity (HL-60 [12]): Dose-dependent effect | IC50 (HL-60 [12]): 0.94 µM | Activity (HL-60 [13]): Active | Activity (SGC-7901 [14]): Dose-dependent effect | IC50 (SGC-7901 [14]): 4.05 µM | Activity [15]: 20% | Activity (HL-60 [16]): Active | Activity (HL-60 [17]): Active | Activity (HL-60 [18]): inactive | Activity (HL-60 [19]): Active | Activity (Liver [20]): inactive | Activity (HL-60 [21]): Active | Activity (HL-60 [22]): Dose-dependent effect | Activity (HL-60 [23]): Dose-dependent effect | IC50 (HL-60 [23]): 0.71 µM | Activity (HL-60 [24]): Active | Activity (Liver [25]): inactive | IC50 (GES1): 3.55 µM | Activity (GES1): Dose-dependent effect | Activity (HL-60 [26]): Active | Activity (MCF7 [27]): Tde | Activity (Homo sapiens): inactive | Activity (MCF7 [28]): Dose-dependent effect | IC50 (MCF7 [28]): 5.7 µM

O=C(Nc1ccc([As]2SCCCS2)cc1)c1ccccc1O
Activity (HL-60 [1]): inactive | inhibition [2]: Dose-dependent effect | Activity (SGC-7901 [3]): Tde | Activity (HL-60 [4]): inactive | Activity (HL-60 [5]): Active | Activity (Liver [6]): inactive | Activity (HL-60 [7]): Active | Activity (HL-60 [8]): Tde | Activity (HL-60 [9]): Active | Activity (HL-60 [10]): Active | fold change (FC) (HL-60 [11]): 2 | Activity (HL-60 [12]): Dose-dependent effect | IC50 (HL-60 [12]): 0.84 µM | Activity (HL-60 [13]): Active | Activity (SGC-7901 [14]): Dose-dependent effect | IC50 (SGC-7901 [14]): 6.75 µM | Activity [15]: 20% | Activity (HL-60 [16]): Active | Activity (HL-60 [17]): Active | Activity (HL-60 [18]): inactive | Activity (HL-60 [19]): Active | Activity (Liver [20]): inactive | Activity (HL-60 [21]): Active | Activity (HL-60 [22]): Dose-dependent effect | Activity (HL-60 [23]): Dose-dependent effect | IC50 (HL-60 [23]): 0.69 µM | Activity (HL-60 [24]): Active | Activity (Liver [25]): inactive | IC50 (GES1): 9.07 µM | Activity (GES1): Dose-dependent effect | Activity (HL-60 [26]): Active | Activity (MCF7 [27]): Tde | Activity (Homo sapiens): inactive | Activity (MCF7 [28]): Dose-dependent effect | IC50 (MCF7 [28]): 11.9 µM
